In US20220119354A1, “DIAMINO-SUBSTITUTED PYRIDINES AND PYRIMIDINES AS HERBICIDES” (FMC Corporation, priority 2019, published 2022):

Legend:
Format in all cases: in vivo
[1] = test system: kochia (Kochia scoparia); experiment: Test A postemergence, kochia; conditions: 0 to 100 scale; for Plant response rating, Kochia: 0 no effect, 100 complete control
In short: (§1)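 Plants grown in a loam soil and sand blend were treated either preemergence by directed soil spray or postemergence when 2 to 10 cm tall (one- to two-leaf stage). Formulation: non-phytotoxic solvent mixture with surfactant. Greenhouse hold ~10 d, then visual injury assessment on a 0–100 scale.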

[2] = test system: foxtail, giant (Setaria faberii); experiment: Test A postemergence, giant foxtail; conditions: 0 to 100 scale; for Plant response rating, Foxtail, Giant: 0 no effect, 100 complete control
In short: as §1

[3] = test system: wheat (Triticum aestivum); experiment: Test A postemergence, wheat; conditions: 0 to 100 scale; for Plant response rating, Wheat: 0 no effect, 100 complete control
In short: as §1

[4] = test system: blackgrass (Alopecurus myosuroides); experiment: Test A postemergence, blackgrass; conditions: 0 to 100 scale; for Plant response rating, Blackgrass: 0 no effect, 100 complete control
In short: as §1

[5] = test system: foxtail, giant (Setaria faberii); experiment: Test A preemergence, giant foxtail; conditions: 0 to 100 scale, 0 is no effect, 100 is complete control
In short: as §1

[6] = test system: corn (Zea mays); experiment: Test A postemergence, corn; conditions: 0 to 100 scale; for Plant response rating, Corn: 0 no effect, 100 complete control
In short: as §1

[7] = test system: sedge, umbrella (small-flower umbrella sedge, Cyperus difformis); experiment: Test B flooded paddy test, umbrella sedge; conditions: Flood, 250 g ai/ha, applied to paddy water, 2-leaf stage, visual evaluation after 13 to 15 d
In short: (§2)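 Growth to two leaves preceded treatment. Flooding to 3 cm above soil surface, then water-applied compound; depth kept constant. Scored visually relative to controls after 13–15 d greenhouse; 100 means full control.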

[8] = test system: pigweed (Amaranthus retroflexus); experiment: Test A postemergence, pigweed; conditions: 0 to 100 scale; for Plant response rating, Pigweed: 0 no effect, 100 complete control
In short: as §1

[9] = test system: barnyardgrass (Echinochloa crus-galli); experiment: Test A postemergence, barnyardgrass; conditions: 0 to 100 scale; for Plant response rating, Barnyardgrass: 0 no effect, 100 complete control
In short: as §1

[10] = test system: kochia (Kochia scoparia); experiment: Test A preemergence, kochia; conditions: 0 to 100 scale, 0 is no effect, 100 is complete control
In short: as §1

[11] = test system: ragweed (common ragweed, Ambrosia elatior); experiment: Test A preemergence, ragweed; conditions: 0 to 100 scale, 0 is no effect, 100 is complete control
In short: as §1

[12] = test system: pigweed (Amaranthus retroflexus); experiment: Test A preemergence, pigweed; conditions: 0 to 100 scale, 0 is no effect, 100 is complete control
In short: as §1

[13] = test system: ragweed (common ragweed, Ambrosia elatior); experiment: Test A postemergence, ragweed; conditions: 0 to 100 scale; for Plant response rating, Ragweed: 0 no effect, 100 complete control
In short: as §1

[14] = test system: barnyardgrass (Echinochloa crus-galli); experiment: Test A preemergence, barnyardgrass; conditions: 0 to 100 scale, 0 is no effect, 100 is complete control
In short: as §1

[15] = test system: ryegrass, Italian (Lolium multiflorum); experiment: Test A postemergence, Italian ryegrass; conditions: 0 to 100 scale; for Plant response rating, Ryegrass, Italian: 0 no effect, 100 complete control
In short: as §1

[16] = test system: galium (catchweed bedstraw, Galium aparine); experiment: Test A postemergence, galium; conditions: 0 to 100 scale; for Plant response rating, Galium: 0 no effect, 100 complete control
In short: as §1

[17] = test system: ryegrass, Italian (Lolium multiflorum); experiment: Test A preemergence, Italian ryegrass; conditions: 0 to 100 scale, 0 is no effect, 100 is complete control
In short: as §1

[18] = test system: barnyardgrass (Echinochloa crus-galli); experiment: Test B flooded paddy test, barnyardgrass; conditions: Flood, 250 g ai/ha, applied to paddy water, 2-leaf stage, visual evaluation after 13 to 15 d
In short: as §2

[19] = test system: ducksalad (Heteranthera limosa); experiment: Test B flooded paddy test, ducksalad; conditions: Flood, 250 g ai/ha, applied to paddy water, 2-leaf stage, visual evaluation after 13 to 15 d
In short: as §2

[20] = test system: rice (Oryza sativa); experiment: Test B flooded paddy test, rice; conditions: Flood, 250 g ai/ha, applied to paddy water, 2-leaf stage, visual evaluation after 13 to 15 d
In short: as §2

[21] = 500 g ai/ha, 0 is no effect, 100 is complete control

SMILES: Nc1nc(NC(c2coc3ccccc23)C2CC2)ncc1C(F)(F)F (racemic) [Compound 95]
- Plant response rating, Kochia ([1]; 125 g ai/ha): 80
- Plant response rating, Kochia ([1]; 500 g ai/ha): 90
- Plant response rating, Foxtail, Giant ([2]; 125 g ai/ha): 50
- Plant response rating, Foxtail, Giant ([2]; 500 g ai/ha): 90
- Plant response rating, Wheat ([3]; 125 g ai/ha): 0
- Plant response rating, Wheat ([3]; 500 g ai/ha): 30
- Plant response rating, Blackgrass ([4]; 125 g ai/ha): 0
- Plant response rating, Blackgrass ([4]; 500 g ai/ha): 70
- Foxtail, Giant plant response rating ([5]; 125 g ai/ha): 90
- Foxtail, Giant plant response rating ([5]; 500 g ai/ha): 100
- Plant response rating, Corn ([6]; 125 g ai/ha): 10
- Plant response rating, Corn ([6]; 500 g ai/ha): 30
- Plant response rating, Sedge, Umbrella (0 to 100 scale, 0 is no effect, 100 is complete control) [7]: 70
- Plant response rating, Pigweed ([8]; 125 g ai/ha): 100
- Plant response rating, Pigweed ([8]; 500 g ai/ha): 100
- Plant response rating, Barnyardgrass ([9]; 125 g ai/ha): 0
- Plant response rating, Barnyardgrass ([9]; 500 g ai/ha): 70
- Kochia plant response rating ([10]; 125 g ai/ha): 80
- Kochia plant response rating ([10]; 500 g ai/ha): 90
- Ragweed plant response rating ([11]; 125 g ai/ha): 50
- Ragweed plant response rating ([11]; 500 g ai/ha): 100
- Pigweed plant response rating ([12]; 125 g ai/ha): 90
- Pigweed plant response rating ([12]; 500 g ai/ha): 100
- Plant response rating, Ragweed ([13]; 125 g ai/ha): 60
- Plant response rating, Ragweed ([13]; 500 g ai/ha): 80
- Barnyardgrass plant response rating ([14]; 125 g ai/ha): 80
- Barnyardgrass plant response rating ([14]; 500 g ai/ha): 100
- Plant response rating, Ryegrass, Italian ([15]; 125 g ai/ha): 50
- Plant response rating, Ryegrass, Italian ([15]; 500 g ai/ha): 100
- Plant response rating, Galium ([16]; 125 g ai/ha): 80
- Plant response rating, Galium ([16]; 500 g ai/ha): 80
- Ryegrass, Italian plant response rating ([17]; 125 g ai/ha): 40
- Ryegrass, Italian plant response rating ([17]; 500 g ai/ha): 60
- Plant response rating, Barnyardgrass (0 to 100 scale, 0 is no effect, 100 is complete control) [18]: 35
- Plant response rating, Ducksalad (0 to 100 scale, 0 is no effect, 100 is complete control) [19]: 55
- Plant response rating, Rice (0 to 100 scale, 0 is no effect, 100 is complete control) [20]: 0

SMILES: CC(Nc1nc(N)c(C(F)(F)F)c(C(F)(F)F)n1)c1coc2ccccc12 (stereo not drawn) [Compound 87]
- Plant response rating, Kochia ([1]; 125 g ai/ha): 0
- Plant response rating, Kochia ([1]; 500 g ai/ha): 30
- Plant response rating, Foxtail, Giant ([2]; 125 g ai/ha): 0
- Plant response rating, Foxtail, Giant ([2]; 500 g ai/ha): 0
- Plant response rating, Wheat ([3]; 125 g ai/ha): 0
- Plant response rating, Wheat ([3]; 500 g ai/ha): 0
- Plant response rating, Blackgrass ([4]; 125 g ai/ha): 0
- Plant response rating, Blackgrass ([4]; 500 g ai/ha): 0
- Foxtail, Giant plant response rating ([5]; 125 g ai/ha): 0
- Foxtail, Giant plant response rating ([5]; 500 g ai/ha): 0
- Plant response rating, Corn ([6]; 125 g ai/ha): 0
- Plant response rating, Corn ([6]; 500 g ai/ha): 0
- Plant response rating, Sedge, Umbrella (0 to 100 scale, 0 is no effect, 100 is complete control) [7]: 0
- Plant response rating, Pigweed ([8]; 125 g ai/ha): 0
- Plant response rating, Pigweed ([8]; 500 g ai/ha): 60
- Plant response rating, Barnyardgrass ([9]; 125 g ai/ha): 0
- Plant response rating, Barnyardgrass ([9]; 500 g ai/ha): 0
- Kochia plant response rating ([10]; 125 g ai/ha): 0
- Kochia plant response rating ([10]; 500 g ai/ha): 0
- Ragweed plant response rating ([11]; 125 g ai/ha): 0
- Ragweed plant response rating ([11]; 500 g ai/ha): 0
- Pigweed plant response rating ([12]; 125 g ai/ha): 0
- Pigweed plant response rating ([12]; 500 g ai/ha): 10
- Plant response rating, Ragweed ([13]; 125 g ai/ha): 0
- Plant response rating, Ragweed ([13]; 500 g ai/ha): 20
- Barnyardgrass plant response rating ([14]; 125 g ai/ha): 0
- Barnyardgrass plant response rating ([14]; 500 g ai/ha): 0
- Plant response rating, Ryegrass, Italian ([15]; 125 g ai/ha): 0
- Plant response rating, Ryegrass, Italian ([15]; 500 g ai/ha): 0
- Plant response rating, Galium ([16]; 125 g ai/ha): 0
- Plant response rating, Galium ([16]; 500 g ai/ha): 0
- Ryegrass, Italian plant response rating ([17]; 125 g ai/ha): 0
- Ryegrass, Italian plant response rating ([17]; 500 g ai/ha): 0
- Plant response rating, Barnyardgrass (0 to 100 scale, 0 is no effect, 100 is complete control) [18]: 0
- Plant response rating, Ducksalad (0 to 100 scale, 0 is no effect, 100 is complete control) [19]: 0
- Plant response rating, Rice (0 to 100 scale, 0 is no effect, 100 is complete control) [20]: 0

SMILES: C[C@H](Nc1ncc(C(F)(F)F)c(N)n1)c1cc2ccc(F)cc2s1 [Compound 47]
- Plant response rating, Kochia ([1]; 125 g ai/ha): 0
- Kochia plant response rating [1, 21]: 60
- Plant response rating, Foxtail, Giant ([2]; 125 g ai/ha): 0
- Foxtail, Giant plant response rating [2, 21]: 0
- Plant response rating, Wheat ([3]; 125 g ai/ha): 0
- Wheat plant response rating [3, 21]: 0
- Plant response rating, Blackgrass ([4]; 125 g ai/ha): 0
- Blackgrass plant response rating [4, 21]: 30
- Foxtail, Giant plant response rating ([5]; 125 g ai/ha): 0
- Foxtail, Giant plant response rating ([5]; 500 g ai/ha): 0
- Plant response rating, Corn ([6]; 125 g ai/ha): 0
- Corn plant response rating [6, 21]: 0
- Plant response rating, Sedge, Umbrella (0 to 100 scale, 0 is no effect, 100 is complete control) [7]: 0
- Plant response rating, Pigweed ([8]; 125 g ai/ha): 20
- Pigweed plant response rating [8, 21]: 80
- Plant response rating, Barnyardgrass ([9]; 125 g ai/ha): 0
- Barnyardgrass plant response rating [9, 21]: 0
- Kochia plant response rating ([10]; 125 g ai/ha): 0
- Kochia plant response rating ([10]; 500 g ai/ha): 0
- Ragweed plant response rating ([11]; 125 g ai/ha): 0
- Ragweed plant response rating ([11]; 500 g ai/ha): 0
- Pigweed plant response rating ([12]; 125 g ai/ha): 0
- Pigweed plant response rating ([12]; 500 g ai/ha): 30
- Plant response rating, Ragweed ([13]; 125 g ai/ha): 0
- Ragweed plant response rating [13, 21]: 0
- Barnyardgrass plant response rating ([14]; 125 g ai/ha): 0
- Barnyardgrass plant response rating ([14]; 500 g ai/ha): 0
- Plant response rating, Ryegrass, Italian ([15]; 125 g ai/ha): 0
- Ryegrass, Italian plant response rating [15, 21]: 0
- Plant response rating, Galium ([16]; 125 g ai/ha): 0
- Galium plant response rating [16, 21]: 0
- Ryegrass, Italian plant response rating ([17]; 125 g ai/ha): 0
- Ryegrass, Italian plant response rating ([17]; 500 g ai/ha): 0
- Plant response rating, Barnyardgrass (0 to 100 scale, 0 is no effect, 100 is complete control) [18]: 0
- Plant response rating, Ducksalad (0 to 100 scale, 0 is no effect, 100 is complete control) [19]: 0
- Plant response rating, Rice (0 to 100 scale, 0 is no effect, 100 is complete control) [20]: 0
